Measured values: ChEMBL document CHEMBL1201862, “PubChem BioAssay data set” (2004)
The source made the active and inactive calls.

Tests used:
[1] = Cytotoxicity screening for potential Inhibitors of Bacterial Capsule Biogenesis. [Related pubchem assays (depositor defined):AID488970]; assay type: functional
[2] = target: Neurotensin receptor type 1 (Homo sapiens, UniProt P30989); assay type: functional;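 note: Image-based confirmatory dose-response assay measuring agonist activity at NTR1; NTR1-expressing U2OS osteosarcoma cells imaged for beta-arrestin GFP spot formation; agonist potency where compounds increase beta-arrestin recruitment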
[3] = target: T1, High affinity choline transporter 1 (Homo sapiens, UniProt Q9GZV3); experiment: CHT inhibitors, dose response, cell-based, 5-point CRC, membrane potential dye (AID 504840); assay type: functional
T1 sequence (Q9GZV3 whole entry): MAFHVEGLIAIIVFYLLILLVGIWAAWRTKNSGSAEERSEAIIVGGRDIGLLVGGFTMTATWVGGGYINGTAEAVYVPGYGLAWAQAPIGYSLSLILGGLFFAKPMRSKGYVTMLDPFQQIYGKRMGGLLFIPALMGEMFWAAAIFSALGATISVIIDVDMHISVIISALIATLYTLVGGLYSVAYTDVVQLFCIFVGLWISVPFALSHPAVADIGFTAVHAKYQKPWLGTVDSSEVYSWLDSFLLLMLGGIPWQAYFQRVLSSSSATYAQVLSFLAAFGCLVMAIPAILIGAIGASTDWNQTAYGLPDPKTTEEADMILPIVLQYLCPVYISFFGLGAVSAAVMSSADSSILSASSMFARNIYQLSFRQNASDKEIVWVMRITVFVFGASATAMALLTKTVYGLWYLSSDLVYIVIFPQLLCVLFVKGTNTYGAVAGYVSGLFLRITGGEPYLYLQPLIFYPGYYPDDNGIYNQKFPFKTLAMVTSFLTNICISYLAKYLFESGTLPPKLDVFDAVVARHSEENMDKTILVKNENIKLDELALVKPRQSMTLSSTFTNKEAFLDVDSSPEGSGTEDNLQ

[4] = microbe, parasite or virus in culture; assay type: functional; details: Mycobacterium tuberculosis
INS1 = experiment: beta cell apoptosis inhibitors, cytokine rescue, dose response, luminescence, retest (AID 449756); assay type: functional, cell-based; details: Rattus norvegicus, INS1;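 note: cell death triggered by IL-1 beta plus TNF-alpha plus IFN-gamma mixture; protective hits raise ATP signal compared with cytokine alone wells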
SUMO-activating enzyme [5] = target: T2, SUMO-activating enzyme (Homo sapiens, UniProt Q9UBT2); experiment: inhibitors of in vitro SUMOylation cascade, primary screen, biochemical, HTRF, uHTS (AID 2006); assay type: protein-complex assay
T2 sequence (Q9UBE0 whole entry): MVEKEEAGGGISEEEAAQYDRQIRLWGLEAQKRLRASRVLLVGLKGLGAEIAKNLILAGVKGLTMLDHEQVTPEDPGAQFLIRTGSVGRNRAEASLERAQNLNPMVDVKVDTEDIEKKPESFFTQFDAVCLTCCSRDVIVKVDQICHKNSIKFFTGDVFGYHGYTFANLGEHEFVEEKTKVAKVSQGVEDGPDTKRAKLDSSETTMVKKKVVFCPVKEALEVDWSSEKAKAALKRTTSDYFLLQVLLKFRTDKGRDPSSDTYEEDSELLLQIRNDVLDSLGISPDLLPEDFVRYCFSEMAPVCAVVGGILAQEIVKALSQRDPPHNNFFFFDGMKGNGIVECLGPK
T2 sequence (Q9UBT2 whole entry): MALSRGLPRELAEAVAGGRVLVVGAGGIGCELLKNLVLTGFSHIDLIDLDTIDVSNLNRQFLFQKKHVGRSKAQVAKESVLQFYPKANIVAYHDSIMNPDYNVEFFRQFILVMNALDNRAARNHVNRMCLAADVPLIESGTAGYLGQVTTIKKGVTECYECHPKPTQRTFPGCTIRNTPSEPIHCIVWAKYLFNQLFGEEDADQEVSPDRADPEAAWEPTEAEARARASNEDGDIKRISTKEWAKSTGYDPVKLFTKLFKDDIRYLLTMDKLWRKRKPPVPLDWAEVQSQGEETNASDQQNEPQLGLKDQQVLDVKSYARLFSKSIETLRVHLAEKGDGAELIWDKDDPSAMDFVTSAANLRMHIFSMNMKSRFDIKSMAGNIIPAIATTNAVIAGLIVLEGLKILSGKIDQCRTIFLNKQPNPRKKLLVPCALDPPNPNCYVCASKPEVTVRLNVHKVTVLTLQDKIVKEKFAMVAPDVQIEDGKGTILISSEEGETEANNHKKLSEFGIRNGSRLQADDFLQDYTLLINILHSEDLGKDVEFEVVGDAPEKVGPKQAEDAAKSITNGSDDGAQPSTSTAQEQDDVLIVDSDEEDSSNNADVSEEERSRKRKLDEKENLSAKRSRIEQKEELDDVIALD

Cytochrome P450 3A4 = Cytochrome P450 3A4 (Homo sapiens, UniProt P08684); details: Potency;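 note: confirmatory qHTS run detecting inhibitors and substrates of CYP3A4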
SUMO-activating enzyme [6] = target: T2, SUMO-activating enzyme; experiment: SUMOylation inhibitor hit validation, confirmation, SUMOylation inhibitor project, biochemical, AlphaScreen (AID 2018); assay type: functional
[7] = target: T3, Replicative DNA helicase DnaB (Mycobacterium tuberculosis, UniProt P9WMR3); experiment: DnaB intein splicing inhibitors, dose response, biochemical, cell-free fluorescence (AID 449749); assay type: functional
T3 sequence (P9WMR3 whole entry): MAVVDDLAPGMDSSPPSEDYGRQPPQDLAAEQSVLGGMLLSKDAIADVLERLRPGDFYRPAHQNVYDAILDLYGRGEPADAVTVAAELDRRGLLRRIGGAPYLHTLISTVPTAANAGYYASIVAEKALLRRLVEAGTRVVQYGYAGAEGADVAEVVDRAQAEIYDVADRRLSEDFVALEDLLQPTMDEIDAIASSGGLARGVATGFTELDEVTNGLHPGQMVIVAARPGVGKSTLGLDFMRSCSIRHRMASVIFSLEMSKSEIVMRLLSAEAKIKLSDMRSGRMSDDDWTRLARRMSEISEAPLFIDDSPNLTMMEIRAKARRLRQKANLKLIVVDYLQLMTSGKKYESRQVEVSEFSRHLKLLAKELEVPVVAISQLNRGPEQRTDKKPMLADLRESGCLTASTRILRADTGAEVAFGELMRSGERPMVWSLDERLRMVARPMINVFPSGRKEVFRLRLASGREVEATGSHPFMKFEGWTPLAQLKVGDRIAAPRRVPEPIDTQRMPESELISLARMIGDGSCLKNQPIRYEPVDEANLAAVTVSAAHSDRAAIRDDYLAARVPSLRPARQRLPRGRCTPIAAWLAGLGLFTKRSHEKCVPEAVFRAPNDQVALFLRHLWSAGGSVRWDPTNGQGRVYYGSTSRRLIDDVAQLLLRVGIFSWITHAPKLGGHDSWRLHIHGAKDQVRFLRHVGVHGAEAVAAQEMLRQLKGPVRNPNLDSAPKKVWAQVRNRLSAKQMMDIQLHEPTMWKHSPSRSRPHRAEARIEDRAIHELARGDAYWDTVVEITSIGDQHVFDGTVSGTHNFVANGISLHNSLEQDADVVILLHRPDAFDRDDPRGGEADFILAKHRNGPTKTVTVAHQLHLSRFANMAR

[8] = target: Envelope glycoprotein gp160 (Human immunodeficiency virus 1, UniProt Q6QLK5); experiment: inhibitors of HIV fusion peptide binding, primary screen, biochemical, uHTS, fluorescence dequenching (AID 1986)
Protein RecA = target: T4, Protein RecA (Mycobacterium tuberculosis, UniProt P9WHJ3); experiment: Fluorescence Cell-Free Homogeneous Dose Retest to Identify Inhibitors of RecA-Intein Splicing Activity. [Related pubchem assays (depositor defined):AID2097, AID2223, AID489010, AID492950]; assay type: functional
T4 sequence (P9WHJ3 whole entry): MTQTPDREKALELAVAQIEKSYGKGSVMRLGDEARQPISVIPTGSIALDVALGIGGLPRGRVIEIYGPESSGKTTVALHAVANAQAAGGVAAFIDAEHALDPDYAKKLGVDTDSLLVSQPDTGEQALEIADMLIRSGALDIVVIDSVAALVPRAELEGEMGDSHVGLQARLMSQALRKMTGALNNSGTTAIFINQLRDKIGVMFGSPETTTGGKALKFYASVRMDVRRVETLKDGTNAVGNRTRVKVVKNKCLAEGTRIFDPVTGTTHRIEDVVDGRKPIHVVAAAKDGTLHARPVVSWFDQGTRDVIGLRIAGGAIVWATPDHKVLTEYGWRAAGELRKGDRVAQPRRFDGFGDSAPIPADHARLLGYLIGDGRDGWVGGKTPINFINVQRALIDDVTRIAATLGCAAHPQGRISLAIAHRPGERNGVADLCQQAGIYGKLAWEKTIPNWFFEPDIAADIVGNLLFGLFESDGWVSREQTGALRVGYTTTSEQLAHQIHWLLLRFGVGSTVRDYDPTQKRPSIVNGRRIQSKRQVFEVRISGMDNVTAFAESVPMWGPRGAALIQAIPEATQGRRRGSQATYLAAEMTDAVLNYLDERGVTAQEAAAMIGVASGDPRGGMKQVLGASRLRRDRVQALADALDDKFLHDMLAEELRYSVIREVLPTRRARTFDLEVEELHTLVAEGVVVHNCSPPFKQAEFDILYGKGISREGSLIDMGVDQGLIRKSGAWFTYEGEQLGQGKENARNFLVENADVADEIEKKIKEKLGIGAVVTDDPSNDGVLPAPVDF

Genome polyprotein = Genome polyprotein (dengue virus type 2, UniProt P29990); experiment: Dengue-2 NS5 methyltransferase inhibitors, primary screen, biochemical, confirmation dose response (AID 588689); assay type: functional
Chain of Genome polyprotein (P29990 2492-3391 limits assumed): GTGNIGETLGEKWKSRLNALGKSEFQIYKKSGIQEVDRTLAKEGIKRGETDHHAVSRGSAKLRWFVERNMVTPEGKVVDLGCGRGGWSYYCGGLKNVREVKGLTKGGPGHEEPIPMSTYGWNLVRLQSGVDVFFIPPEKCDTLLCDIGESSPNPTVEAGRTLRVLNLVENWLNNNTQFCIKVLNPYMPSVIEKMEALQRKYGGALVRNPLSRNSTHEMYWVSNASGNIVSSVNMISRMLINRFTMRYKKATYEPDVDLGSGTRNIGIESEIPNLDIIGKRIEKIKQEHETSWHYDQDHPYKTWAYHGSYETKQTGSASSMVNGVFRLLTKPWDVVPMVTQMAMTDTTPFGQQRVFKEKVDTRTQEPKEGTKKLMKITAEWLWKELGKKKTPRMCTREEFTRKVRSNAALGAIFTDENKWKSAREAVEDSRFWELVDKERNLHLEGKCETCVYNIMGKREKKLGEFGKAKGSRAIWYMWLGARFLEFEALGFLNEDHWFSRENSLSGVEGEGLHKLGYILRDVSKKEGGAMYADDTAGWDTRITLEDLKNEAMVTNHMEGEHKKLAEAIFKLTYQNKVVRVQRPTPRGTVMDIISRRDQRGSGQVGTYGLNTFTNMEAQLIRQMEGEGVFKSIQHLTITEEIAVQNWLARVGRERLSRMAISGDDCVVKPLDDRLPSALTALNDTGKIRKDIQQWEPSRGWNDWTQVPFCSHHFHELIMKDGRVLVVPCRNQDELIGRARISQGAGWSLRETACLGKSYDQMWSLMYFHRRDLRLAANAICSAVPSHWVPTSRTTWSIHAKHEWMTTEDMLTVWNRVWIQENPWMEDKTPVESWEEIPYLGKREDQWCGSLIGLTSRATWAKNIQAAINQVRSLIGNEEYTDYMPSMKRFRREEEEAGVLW

[9] = NIH-3T3 fibroblast cytotoxicity, dose response, cytotoxicity control, cell-based, fluorescence, Alamar Blue, secondary assay (AID 2327); assay type: functional;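 note: NIH-3T3 mouse fibroblasts cultured with fluconazole at 8 µg/mL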
HEK293 [10] = experiment: cells; assay type: functional, cell-based; details: Homo sapiens
HEK293 [11] = experiment: NOD2 signaling inhibitors in MDP-stimulated cells, cell-based, uHTS, luminescence (AID 2001); assay type: functional; details: Homo sapiens
HEK293 [12] = experiment: NOD1 signaling inhibitors, primary screen, cell-based, luminescence, uHTS (AID 1578); assay type: functional; details: Homo sapiens
[13] = C. albicans growth with fluconazole, confirmation, fluorescence, retest (AID 2467); assay type: functional, cell-based
HEK293 [14] = experiment: cells; assay type: functional, cell-based; details: Homo sapiens; remark: listed apart in the source
[15] = cytotoxicity in HEK-293T cells, dose response, cytotoxicity control for BCR NF-kB inhibitor project, luminescence, B-cell screen hits (AID 489021); assay type: functional, cell-based;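 note: HEK-293T cells carrying an NF-kB luciferase reporter; cells exposed to compound for about 14 hours before viability readout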
[16] = target: Nucleotide-binding oligomerization domain-containing protein 2 (Homo sapiens, UniProt Q9HC29); experiment: NOD2 signaling inhibitors, cell-based, luminescence, uHTS, HEK293 (AID 1566); assay type: functional
Chain of Nucleotide-binding oligomerization domain-containing protein 2 (Q9HC29 whole entry, the tested form may be a part): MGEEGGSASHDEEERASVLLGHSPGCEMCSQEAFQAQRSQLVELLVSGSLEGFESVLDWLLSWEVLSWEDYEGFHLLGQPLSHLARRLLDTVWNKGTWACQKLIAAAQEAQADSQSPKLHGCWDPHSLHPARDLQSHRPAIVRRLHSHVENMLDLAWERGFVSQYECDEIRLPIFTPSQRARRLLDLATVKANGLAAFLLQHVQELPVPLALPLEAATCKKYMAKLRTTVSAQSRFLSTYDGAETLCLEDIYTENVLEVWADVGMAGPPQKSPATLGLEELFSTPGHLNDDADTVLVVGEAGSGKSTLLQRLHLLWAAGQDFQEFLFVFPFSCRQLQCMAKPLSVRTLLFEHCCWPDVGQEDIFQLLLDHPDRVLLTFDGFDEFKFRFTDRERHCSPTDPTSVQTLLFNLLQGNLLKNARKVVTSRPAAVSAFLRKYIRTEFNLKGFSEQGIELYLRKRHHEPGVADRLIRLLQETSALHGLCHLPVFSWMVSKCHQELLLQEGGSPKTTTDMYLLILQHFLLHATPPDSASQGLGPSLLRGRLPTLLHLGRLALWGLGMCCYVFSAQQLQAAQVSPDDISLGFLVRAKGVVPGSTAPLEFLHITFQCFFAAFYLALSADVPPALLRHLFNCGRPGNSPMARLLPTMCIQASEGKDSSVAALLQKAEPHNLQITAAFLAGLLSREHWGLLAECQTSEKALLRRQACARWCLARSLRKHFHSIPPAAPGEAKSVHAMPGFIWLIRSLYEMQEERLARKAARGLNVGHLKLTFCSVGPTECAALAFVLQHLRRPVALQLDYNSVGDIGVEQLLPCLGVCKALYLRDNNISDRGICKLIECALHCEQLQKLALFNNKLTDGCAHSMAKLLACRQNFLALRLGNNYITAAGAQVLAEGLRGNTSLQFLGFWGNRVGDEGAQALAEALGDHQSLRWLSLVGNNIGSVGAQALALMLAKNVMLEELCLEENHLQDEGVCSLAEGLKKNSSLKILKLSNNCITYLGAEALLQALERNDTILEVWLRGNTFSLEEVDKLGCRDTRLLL

HEK293 [17] = experiment: cells; assay type: functional, cell-based; details: Homo sapiens; remark: listed apart in the source
[18] = blockers of SFLLRN-triggered platelet ATP secretion – cell-based, human platelets, luminescence, dry powder, dose response (AID 493100); assay type: functional
[19] = Luminescence Cell-Based Dose Confirmation HTS to Identify Inhibitors of Platelet Dense Granule Release. [Related pubchem assays: 1663 (Primary HTS), 1678 (Summary of Project)]; assay type: functional
[20] = target: Luciferin 4-monooxygenase (Photinus pyralis, UniProt P08659); experiment: firefly luciferase enzyme inhibitors, dose response, biochemical, luminescence (AID 1891)
Chain of Luciferin 4-monooxygenase (P08659 whole entry): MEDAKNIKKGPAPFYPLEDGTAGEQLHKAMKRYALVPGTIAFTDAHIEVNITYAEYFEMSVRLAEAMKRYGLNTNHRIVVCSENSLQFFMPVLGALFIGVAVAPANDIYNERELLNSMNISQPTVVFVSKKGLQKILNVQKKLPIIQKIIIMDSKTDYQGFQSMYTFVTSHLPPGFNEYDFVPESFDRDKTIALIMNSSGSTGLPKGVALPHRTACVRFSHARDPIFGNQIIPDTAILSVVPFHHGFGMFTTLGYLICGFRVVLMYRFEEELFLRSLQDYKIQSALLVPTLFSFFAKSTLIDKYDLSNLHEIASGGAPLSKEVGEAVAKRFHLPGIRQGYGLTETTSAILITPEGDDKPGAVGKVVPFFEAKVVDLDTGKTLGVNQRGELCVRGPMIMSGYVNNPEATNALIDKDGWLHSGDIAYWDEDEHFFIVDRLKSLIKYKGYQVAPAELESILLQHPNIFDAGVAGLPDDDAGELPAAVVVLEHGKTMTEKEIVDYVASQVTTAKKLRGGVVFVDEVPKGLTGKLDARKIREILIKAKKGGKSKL

[21] = target: Metabotropic glutamate receptor 4 (Homo sapiens, UniProt Q14833); experiment: Modulation of the Metabotropic Glutamate Receptor mGluR4: Potency at human mGluR4. Modulation of intracellular Ca2+ using Fluo-4, AM, in CHO expressing recombinant receptor [Related pubchem assays (depositor defined):AID2437, AID2807]; assay type: functional, cell-based
[22] = target: Voltage-dependent T-type calcium channel subunit alpha-1H (Homo sapiens, UniProt O95180); experiment: Cav3.2 T-type channel inhibitors, cell-based, synthetic library set 1, calcium flux (AID 493022); assay type: functional
[23] = target: NACHT, LRR and PYD domains-containing protein 3 (Homo sapiens, UniProt Q96P20); experiment: NALP3 inhibitors in yeast, dose response, luminescent (AID 488799); assay type: functional
Chain of NACHT, LRR and PYD domains-containing protein 3 (Q96P20 whole entry, the tested form may be a part): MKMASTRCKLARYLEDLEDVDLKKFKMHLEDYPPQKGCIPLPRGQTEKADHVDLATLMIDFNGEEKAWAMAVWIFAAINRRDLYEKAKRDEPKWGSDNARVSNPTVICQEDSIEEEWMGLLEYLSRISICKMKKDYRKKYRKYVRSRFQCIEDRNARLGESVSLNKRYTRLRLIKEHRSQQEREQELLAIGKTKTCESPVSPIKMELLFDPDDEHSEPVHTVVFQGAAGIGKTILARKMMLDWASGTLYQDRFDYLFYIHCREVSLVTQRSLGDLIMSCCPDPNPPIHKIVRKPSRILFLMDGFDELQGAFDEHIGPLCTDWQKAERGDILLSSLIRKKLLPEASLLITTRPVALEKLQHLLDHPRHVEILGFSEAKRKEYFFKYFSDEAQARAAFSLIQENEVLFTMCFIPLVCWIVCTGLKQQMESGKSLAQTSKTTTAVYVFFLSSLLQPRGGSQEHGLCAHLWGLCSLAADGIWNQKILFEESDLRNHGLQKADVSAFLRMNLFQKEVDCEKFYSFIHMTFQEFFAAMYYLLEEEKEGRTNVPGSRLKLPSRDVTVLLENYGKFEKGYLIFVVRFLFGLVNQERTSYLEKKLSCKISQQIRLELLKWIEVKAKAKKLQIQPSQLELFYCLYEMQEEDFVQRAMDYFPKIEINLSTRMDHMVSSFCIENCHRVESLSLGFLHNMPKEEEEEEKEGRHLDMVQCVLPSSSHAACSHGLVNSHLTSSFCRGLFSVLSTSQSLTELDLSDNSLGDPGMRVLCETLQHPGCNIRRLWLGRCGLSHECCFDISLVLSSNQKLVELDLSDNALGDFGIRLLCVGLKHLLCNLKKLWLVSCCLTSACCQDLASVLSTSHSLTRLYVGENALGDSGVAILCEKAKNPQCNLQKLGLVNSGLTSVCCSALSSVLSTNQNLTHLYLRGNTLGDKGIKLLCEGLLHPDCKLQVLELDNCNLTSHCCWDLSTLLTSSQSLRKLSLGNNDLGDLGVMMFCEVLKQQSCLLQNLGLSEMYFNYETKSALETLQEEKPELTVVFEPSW

[24] = target: DNA damage-inducible transcript 3 protein (Mus musculus, UniProt P35639); assay type: functional, Cricetulus griseus
X-box-binding protein 1 = X-box-binding protein 1 (Homo sapiens, UniProt P17861); assay type: functional, Cricetulus griseus;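 note: confirmatory dose-response counter-screen serving a CHOP assay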
[25] = inhibition of K1F phage lysis, E. coli UTI89, bacterial capsule biogenesis inhibitors, alamar blue (AID 488966); assay type: functional
cells = assay type: functional, cell-based; details: PPC-1
MDA-MB-435 = experiment: cells; assay type: functional, cell-based; details: Homo sapiens
Neutrophil collagenase = Neutrophil collagenase (Homo sapiens, UniProt P22894); experiment: MMP13 inhibition and MMP selectivity, late-stage follow-up, selectivity assay for MMP13 inhibitor project, biochemical, probe development, late stage results, panel member MMP-8 [IC50 Assay] (AID 2067)
Chain of Neutrophil collagenase (P22894 whole entry): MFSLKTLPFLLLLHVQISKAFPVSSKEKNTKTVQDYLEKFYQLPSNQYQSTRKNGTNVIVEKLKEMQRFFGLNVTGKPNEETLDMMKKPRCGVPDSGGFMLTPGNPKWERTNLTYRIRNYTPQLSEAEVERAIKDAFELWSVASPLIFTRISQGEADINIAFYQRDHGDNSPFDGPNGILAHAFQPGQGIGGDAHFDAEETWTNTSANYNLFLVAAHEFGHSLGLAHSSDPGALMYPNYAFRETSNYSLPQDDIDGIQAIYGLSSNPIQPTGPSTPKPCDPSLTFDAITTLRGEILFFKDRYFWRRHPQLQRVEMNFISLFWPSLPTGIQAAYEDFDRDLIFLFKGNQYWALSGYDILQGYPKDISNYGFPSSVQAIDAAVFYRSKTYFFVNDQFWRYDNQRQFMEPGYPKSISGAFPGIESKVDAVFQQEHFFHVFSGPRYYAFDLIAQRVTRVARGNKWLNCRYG

Cc1ccc(C2c3c(oc4cc(C)c(C)cc4c3=O)C(=O)N2CCCN2CCOCC2)cc1 (stereo not given)
CC50 [1]: 44.4 µM (active)

COc1ccc(C(CCN2CCCCC2)c2c(OC)cc(OC)c3c(-c4ccccc4)cc(=O)oc23)cc1 (stereo not given)
EC50 [2]: 14.7 µM (active) | IC50 [3]: 12.6 µM (active) | CC50 [4]: 20.5 µM (active) | AC50 (INS1): 10.7 µM (active)

CCCCCc1c2c(cc(O)c1C(=O)O)OC(=O)c1c(cc(OC)cc1C(=O)CCCC)O2 [LOBARIC ACID]
IC50 [3]: 11 µM (active) | IC50 (SUMO-activating enzyme [5]): 15.3 µM (active) | AC50 (Cytochrome P450 3A4): 25.1 µM (inconclusive) | IC50 (SUMO-activating enzyme [6]): 6.52 µM (active) | AC50 [7]: 6.47 µM (active) | IC50 [8]: 13.1 µM (active) | EC50 (Protein RecA): 4.98 µM (active) | IC50 (Genome polyprotein): 32.2 µM (active)

COc1ccc(-c2n(Cc3ccccc3)c3ccccc3[n+]2Cc2ccccc2)cc1
EC50 [9]: > 150 µM (inactive) | IC50 (HEK293 [10]): > 20 µM (inactive) | IC50 (HEK293 [11]): 3.69 µM (active) | EC50 (HEK293 [12]): 4.23 µM (active) | EC50 [13]: > 38 µM (not active) | IC50 (HEK293 [14]): 11.7 µM (active) | IC50 [15]: > 80 µM (inactive) | EC50 [16]: 9.35 µM (active) | IC50 (HEK293 [17]): 1.21 µM (active) | AC50 (INS1): 3.85 µM (active)

CCCC(=O)Nc1cccc(NC(=O)c2ccccc2F)c1
AC50 [18]: 31.5 µM (active)

COc1ccc(NC(=O)c2ccccn2)cc1OC
EC50 [19]: 42.7 µM (active) | EC50 [20]: > 112 µM (not active) | EC50 [21]: 3.65 µM (active)

O=C(COc1ccc(F)cc1)Nc1nnc(-c2ccc3c(c2)OCO3)o1
EC50 [22]: 10 µM (active)

Cc1onc(-c2ccccc2Cl)c1C(=O)N1C=CC(C(F)(F)F)=NCC1
IC50 [23]: 8.66 µM (active)

O=C(Nc1cccc(C(F)(F)F)c1)NC1CCN(S(=O)(=O)c2ccc(F)cc2)CC1
Absolute IC50 (CHOP) [24]: 10 µM | Absolute IC50 (XBP1) (X-box-binding protein 1): 10 µM

O=C(Nc1ccc(N2CCOCC2)cc1)c1ccc2ncsc2c1
IC50 [25]: > 150 µM (active)

CSc1nc(-c2ccccc2)nc(C(C)C)n1
IC50 (cells): > 10 µM (inactive) | IC50 (MDA-MB-435): > 10 µM (inactive)

Cc1ccc(CSc2nc3c(c(=O)[nH]2)CCC3)cc1
IC50 (Neutrophil collagenase): > 39.8 µM (inactive)
